These results are taken from patent US11608330B2, “Methylamine derivatives as lysysl oxidase inhibitors for the treatment of cancer” (The Institute of Cancer Research: Royal Cancer Hospital, priority 2016, dated 2023).

Assay [1] concerns MATN2 in MDA-MB-231 cells. The experiment in a line: MATN2 level in MDA-MB-231 cells. Type of assay: cell-based, human. To be noted: at a much higher concentration. The method, then:
Proteins were extracted from cultured cells using cell lysis buffer (Cell Signalling Technology) with the addition of protease and phosphatase inhibitor cocktails (Pierce). Protein concentrations were measured using Pierce 660 nm protein assay reagent and SpectaMax M5 plate reader. […] Separated proteins were transferred to nitrocellulose membranes using a Trans-Blot turbo transfer system (Bio-Rad). Following blocking with Odyssey blocking buffer (Li—COR), membranes were incubated with two primary antibodies of different species at 4° C. over night. Corresponding fluorescence secondary antibodies (Li—COR) of different excitation and emission wavelengths were used to visualize the protein of interest on an Odyssey CLx infrared imaging system (Li—COR). Quantification of band fluorescent intensity was achieved using Li-COR ImageStudio. The following primary antibodies were used, anti-LOX (Sigma), anti-human MATN2 (R&D), anti-EGFR and anti-pY1068EGFR (Cell Signalling Technology), and anti-GAPDH (Millipore).

Assay [2] has as its system TGF beta signalling (pSMAD2). Type of assay: cell-based.

On to `N#CCCN` [BAPN, beta-aminopropionitrile], for which, in assay [1], the “reduction of MATN2” value is “same effect”. The “TGF beta signalling as indicated by pSMAD2” value in assay [2] is recorded as “increased TGF beta signalling”.
